Read-outs that look alike come from different tables or passages of the source. Marks after values point to notes of the source that are not given here.
What was measured:
HCC827 cells [1] = test: Western blot assay; assay type: cell-based, Human; conditions: 24 h, Western blotting
Procedure: (§1) The BCA reagent kit (Beyotime Biotechnology) was used to measure protein content. The cell extracts (50 μg protein) were loaded onto a 4–20% ExpressPlus™ PAGE pre-cast gel (GenScript, China) for electrophoresis before transferring to a PVDF membrane. The membranes were blocked with 5% skimmed milk (prepared using Tris-buffered saline containing 0.05% Tween-20) before incubation with primary antibodies at 4 °C overnight. The membranes were then incubated with HRP-conjugated secondary antibodies at room temperature. The Alphaview SA system and software (version 3.4.0, ProteinSimple, USA) was used for quantitative analysis of the optical density of the bands.

NCI-H1975 xenograft = test: Nude mouse xenograft model; conditions: for Body weight (g) Begin / IR (%) inhibition rate of tumor growth (tumor weight) / Body weight (g) End: NCI-H1975 xenograft; for IR (%) inhibition rate of tumor growth (tumor weight): 15 days
Procedure: (§4) HCC827, NCI-H1975, and Calu-3 cells were resuspended in serum-free culture medium and mixed in a 1:1 ratio with Matrigel (BD Biosciences, USA) before subcutaneous injection at the right scapula of each animal (4 × 10^6 cells/mouse). The mice were randomized into groups when the average tumor volume reached 100–200 mm^3. […] The inhibition rate (IR) of tumor growth was calculated using the following equation: IR (%) = (A − B)/A × 100, where A and B are the mean tumor weights of the vehicle control and treatment groups, respectively.

A549 cells = test: Cell growth inhibition assay (MTT); assay type: cell-based, Human; conditions: Homo sapiens, read-out: IC50 cell viability
Procedure: (§2) Human NSCLC cells NCI-H1975, HCC827, Calu-3 and A549were obtained from the Cell Culture Center of the Institute of Basic Medical Sciences, Chinese Academy of Medical Sciences. NCI-H1781 cell line was purchased from Cobioer Biosciences Co., Ltd. With the exception of Calu-3, all cell lines were cultured in RPMI-1640 medium (Gibco, USA) supplemented with 10% fetal bovine serum (FBS) (Gibco, USA). Calu-3 was maintained in Minimum Essential Medium (MEM) supplemented with 10% FBS (Gibco, USA), 5% 100 mM Sodium Pyruvate (Gibco, USA), and 5% Non-Essential Amino Acids Solution (NEAA; Gibco, USA). All cells were incubated at 37 °C with 5% CO2 in air.
(§3) According to the previous report, 5 × 10^3 cells/100 μL were seeded in culture medium in every well in a 96-well plate for 24 hours. […] After 72 h of treatment, MTT (Beyotime Biotechnology, China) was added at a final concentration of […] and incubated for 3 hours. Following that, DMSO was used to dissolve the formazan product and the Molecular Devices SpectraMax M5 microplate reader (Molecular Devices, USA) was used to measure absorbance at 570 nm and IC50 was calculated.

Calu-3 cells = test: Cell growth inhibition assay (MTT); assay type: cell-based; conditions: Homo sapiens, read-out: IC50 cell viability
Procedure: as §2, §3

NCI-H1975 cells [2] = test: Cell growth inhibition assay (MTT); assay type: cell-based; conditions: Homo sapiens, read-out: IC50 cell viability
Procedure: as §2, §3

NCI-H1781 cells = test: Cell growth inhibition assay (MTT); assay type: cell-based; conditions: Homo sapiens, read-out: IC50 cell viability
Procedure: as §2, §3

HCC827 xenograft = test: Nude mouse xenograft model; conditions: for number of p-EGFR and Ki67 positive cells in tumor tissues: HCC827 xenograft model, IHC, vs control group
Procedure: as §4

HCC827 cells [3] = test: Cell growth inhibition assay (MTT); assay type: cell-based; conditions: Homo sapiens, read-out: IC50 cell viability
Procedure: Human NSCLC cells NCI-H1975, HCC827, Calu-3 and A549were obtained from the Cell Culture Center of the Institute of Basic Medical Sciences, Chinese Academy of Medical Sciences. […] Calu-3 was maintained in Minimum Essential Medium (MEM) supplemented with 10% FBS (Gibco, USA), 5% 100 mM Sodium Pyruvate (Gibco, USA), and 5% Non-Essential Amino Acids Solution (NEAA; Gibco, USA). All cells were incubated at 37 °C with 5% CO2 in air.
According to the previous report[29], 5 × 10^3 cells/100 μL were seeded in culture medium in every well in a 96-well plate for 24 hours. […] After 72 h of treatment, MTT (Beyotime Biotechnology, China) was added at a final concentration of 5 mg/ml and incubated for 3 hours. Following that, DMSO was used to dissolve the formazan product and the Molecular Devices SpectraMax M5 microplate reader (Molecular Devices, USA) was used to measure absorbance at 570 nm and IC50 was calculated.

NCI-H1975 cells [4] = test: Western blot assay; assay type: cell-based, Human; conditions: 24 h, Western blotting
Procedure: as §1

Calu-3 xenograft = test: Nude mouse xenograft model; conditions: for Body weight (g) Begin / IR (%) inhibition rate of tumor growth (tumor weight) / Body weight (g) End: Calu-3 xenograft; for IR (%) inhibition rate of tumor growth (tumor weight): 15 days
Procedure: as §4

Her2 Wild Type = target: T1, Her2 Wild Type (Homo sapiens, UniProt P04626); test: In vitro kinase assay; assay type: biochemical; conditions: WT; n = 2
T1 construct: purchased Invitrogen (Shanghai) Co., Ltd
T1 sequence (P04626 23-1255): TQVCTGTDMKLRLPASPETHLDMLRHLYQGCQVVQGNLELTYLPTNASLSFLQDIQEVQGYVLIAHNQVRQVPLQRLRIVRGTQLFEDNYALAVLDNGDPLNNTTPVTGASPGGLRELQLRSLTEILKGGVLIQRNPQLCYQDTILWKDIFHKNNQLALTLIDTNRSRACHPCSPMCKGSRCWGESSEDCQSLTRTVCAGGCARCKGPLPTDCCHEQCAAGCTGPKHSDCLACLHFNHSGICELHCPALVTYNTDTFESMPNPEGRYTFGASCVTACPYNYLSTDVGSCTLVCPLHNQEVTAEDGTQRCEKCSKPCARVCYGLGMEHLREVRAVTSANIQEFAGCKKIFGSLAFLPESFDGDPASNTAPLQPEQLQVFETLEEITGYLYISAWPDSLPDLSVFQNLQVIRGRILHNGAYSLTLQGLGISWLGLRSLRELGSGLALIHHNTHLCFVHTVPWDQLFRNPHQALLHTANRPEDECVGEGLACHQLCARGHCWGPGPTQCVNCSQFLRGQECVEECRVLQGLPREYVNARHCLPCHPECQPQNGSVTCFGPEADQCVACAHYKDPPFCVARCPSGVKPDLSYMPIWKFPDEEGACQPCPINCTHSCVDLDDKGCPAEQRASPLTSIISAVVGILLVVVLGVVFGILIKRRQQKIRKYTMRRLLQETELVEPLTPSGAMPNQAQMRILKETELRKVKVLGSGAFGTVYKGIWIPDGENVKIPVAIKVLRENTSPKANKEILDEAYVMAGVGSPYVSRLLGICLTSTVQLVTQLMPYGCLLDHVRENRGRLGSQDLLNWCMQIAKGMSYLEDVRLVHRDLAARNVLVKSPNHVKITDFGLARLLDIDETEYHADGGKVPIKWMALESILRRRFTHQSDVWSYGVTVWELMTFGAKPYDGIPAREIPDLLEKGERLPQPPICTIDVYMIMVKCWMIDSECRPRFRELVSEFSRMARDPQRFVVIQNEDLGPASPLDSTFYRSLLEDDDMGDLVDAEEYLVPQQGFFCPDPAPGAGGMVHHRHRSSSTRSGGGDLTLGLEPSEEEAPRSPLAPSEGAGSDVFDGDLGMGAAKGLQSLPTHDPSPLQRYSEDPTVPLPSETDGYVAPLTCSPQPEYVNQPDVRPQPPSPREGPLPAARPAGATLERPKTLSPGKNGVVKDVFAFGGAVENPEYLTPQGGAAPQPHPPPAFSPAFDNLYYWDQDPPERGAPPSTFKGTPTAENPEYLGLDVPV

Her4 Wild Type = target: T2, Her4 Wild Type (Homo sapiens, UniProt Q15303); test: In vitro kinase assay; assay type: biochemical; conditions: WT; n = 2
T2 construct: purchased Invitrogen (Shanghai) Co., Ltd
T2 sequence (Q15303 26-1308): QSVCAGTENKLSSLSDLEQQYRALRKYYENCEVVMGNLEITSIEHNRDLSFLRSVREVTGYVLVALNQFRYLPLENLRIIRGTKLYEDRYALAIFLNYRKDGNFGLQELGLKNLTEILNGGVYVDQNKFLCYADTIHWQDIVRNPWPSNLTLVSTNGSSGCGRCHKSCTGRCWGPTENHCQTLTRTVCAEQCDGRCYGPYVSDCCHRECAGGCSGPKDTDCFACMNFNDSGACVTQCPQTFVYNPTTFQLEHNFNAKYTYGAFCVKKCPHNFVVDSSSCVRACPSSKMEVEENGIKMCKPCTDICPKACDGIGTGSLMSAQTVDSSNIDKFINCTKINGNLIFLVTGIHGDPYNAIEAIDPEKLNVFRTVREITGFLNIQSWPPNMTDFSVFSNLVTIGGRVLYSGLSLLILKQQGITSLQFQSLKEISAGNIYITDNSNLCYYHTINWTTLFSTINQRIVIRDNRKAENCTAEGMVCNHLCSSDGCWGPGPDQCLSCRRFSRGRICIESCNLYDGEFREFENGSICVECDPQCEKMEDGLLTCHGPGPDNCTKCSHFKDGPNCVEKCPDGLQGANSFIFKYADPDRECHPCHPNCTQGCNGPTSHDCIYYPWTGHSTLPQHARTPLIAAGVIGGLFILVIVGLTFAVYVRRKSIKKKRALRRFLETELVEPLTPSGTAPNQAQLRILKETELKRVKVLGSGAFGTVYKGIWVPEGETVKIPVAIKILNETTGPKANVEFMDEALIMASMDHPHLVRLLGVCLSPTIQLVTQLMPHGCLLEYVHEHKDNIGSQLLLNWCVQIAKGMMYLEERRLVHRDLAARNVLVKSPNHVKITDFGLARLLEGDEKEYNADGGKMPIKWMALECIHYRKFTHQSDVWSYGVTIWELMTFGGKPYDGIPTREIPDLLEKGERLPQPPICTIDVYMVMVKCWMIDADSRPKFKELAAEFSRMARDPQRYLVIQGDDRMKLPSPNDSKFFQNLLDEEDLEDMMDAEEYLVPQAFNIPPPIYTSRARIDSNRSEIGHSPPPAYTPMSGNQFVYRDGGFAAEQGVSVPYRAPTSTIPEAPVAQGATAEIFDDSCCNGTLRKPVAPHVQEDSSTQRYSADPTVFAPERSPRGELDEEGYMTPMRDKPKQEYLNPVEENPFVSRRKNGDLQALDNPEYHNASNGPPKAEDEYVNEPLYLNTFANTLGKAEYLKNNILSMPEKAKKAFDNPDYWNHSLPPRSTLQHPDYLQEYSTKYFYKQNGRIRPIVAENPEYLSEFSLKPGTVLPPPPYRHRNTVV

C#Cc1cccc(Nc2ncnc3cc(OCCOC)c(OCCOC)cc23)c1 [Erlotinib]
Phosphorylation of EGFR and its downstream AKT and ERK (HCC827 cells [1]): inhibited | tumor growth (in words) (NCI-H1975 xenograft; NCI-H1975 xenograft models, vs. control group): did not inhibit tumor growth | Body weight (g) Begin (NCI-H1975 xenograft; 100 mg/kg/day group): 16.63 ± 1.02 g | IR (%) inhibition rate of tumor growth (tumor weight) (NCI-H1975 xenograft; 100 mg/kg/day oral): 29.78% | Body weight (g) End (NCI-H1975 xenograft; 100 mg/kg/day oral): 14.54 ± 1.10 g | IC50 (A549 cells; A549, 72 h): > 1000 nM | IC50 (Calu-3 cells; Calu-3, 72 h): > 1000 nM | IC50 (NCI-H1975 cells [2]; NCI-H1975, 72 h): > 1000 nM | IC50 (NCI-H1781 cells; NCI-H1781, 72 h): > 1000 nM | number of p-EGFR and Ki67 positive cells in tumor tissues (HCC827 xenograft): strongly decreased | decrease of body weight of animals (HCC827 xenograft; HCC827 xenograft models): more than 20% | Body weight (g) Begin (HCC827 xenograft; HCC827 xenograft, 100 mg/kg/day group): 17.65 ± 0.95 g | Body weight (g) End (HCC827 xenograft; HCC827 xenograft, 100 mg/kg/day oral): 13.82 ± 0.75 g

C=CC(=O)Nc1cc(Nc2nccc(-c3cn(C)c4ccccc34)n2)c(OC)cc1N(C)CCN(C)C [Osimertinib]
IC50 (HCC827 cells [3]; HCC827, 72 h): 1.09 ± 0.22 nM | Phosphorylation of EGFR and its downstream AKT and ERK (HCC827 cells [1]): inhibited | EGFR signaling (NCI-H1975 cells [4]): inhibited | number of p-EGFR and Ki67 positive cells in tumor tissues (NCI-H1975 xenograft; NCI-H1975 xenograft model, IHC): strongly decreased | Body weight (g) Begin (NCI-H1975 xenograft; 10 mg/kg/day group): 16.55 ± 0.82 g | IR (%) inhibition rate of tumor growth (tumor weight) (NCI-H1975 xenograft; 10 mg/kg/day oral): 98.60^*** % | Body weight (g) End (NCI-H1975 xenograft; 10 mg/kg/day oral): 16.23 ± 1.31 g | IC50 (A549 cells; A549, 72 h): > 1000 nM | IC50 (Calu-3 cells; Calu-3, 72 h): 470 ± 7.3 nM | IC50 (NCI-H1975 cells [2]; NCI-H1975, 72 h): […] | IC50 (NCI-H1781 cells; NCI-H1781, 72 h): 842 ± 34 nM | tumor growth (in words) (Calu-3 xenograft; Calu-3 xenograft models, vs. control group): did not show any significant inhibitory activity | Body weight (g) Begin (Calu-3 xenograft; 5 mg/kg/day group): 17.42 ± 0.82 g | IR (%) inhibition rate of tumor growth (tumor weight) (Calu-3 xenograft; 5 mg/kg/day oral): 20.21% | Body weight (g) End (Calu-3 xenograft; 5 mg/kg/day oral): 18.24 ± 0.78 g | number of p-EGFR and Ki67 positive cells in tumor tissues (HCC827 xenograft): strongly decreased | Body weight (g) Begin (HCC827 xenograft; HCC827 xenograft, 2.5 mg/kg/day group): 17.57 ± 1.03 g | Body weight (g) End (HCC827 xenograft; HCC827 xenograft, 2.5 mg/kg/day oral): 19.13 ± 0.78 g | IR (%) inhibition rate of tumor growth (tumor weight) (HCC827 xenograft; mouse, in vivo, po, 2.5 mg/kg/day): 91.19^*** %

C=CC(=O)N1CCC(Oc2cc3c(Nc4ccc(Cl)c(Cl)c4F)ncnc3cc2OC)CC1 [Poziotinib]
IC50 (HCC827 cells [3]; HCC827, EGFR (Del E746_A750), MTT, 72 h, mean ± s.d. (n = 3)): 1.72 ± 0.32 nM | IC50 (Her2 Wild Type): 0.07 nM | Body weight (g) Begin (NCI-H1975 xenograft; 2.5 mg/kg/day group): 16.44 ± 0.69 g | IR (%) inhibition rate of tumor growth (tumor weight) (NCI-H1975 xenograft; 2.5 mg/kg/day oral): 98.18^*** % | Body weight (g) End (NCI-H1975 xenograft; 2.5 mg/kg/day oral): 14.62 ± 0.67 g | IC50 (Her4 Wild Type): 0.18 nM | IC50 (A549 cells; A549, K-ras mutation (G12S), MTT, 72 h, mean ± s.d. (n = 3)): > 1000 nM | IC50 (Calu-3 cells; Calu-3, HER-2 (WT, amplified), MTT, 72 h, mean ± s.d. (n = 3)): 2.47 ± 0.52 nM | IC50 (NCI-H1975 cells [2]; NCI-H1975, EGFR (L858R/T790M), MTT, 72 h, mean ± s.d. (n = 3)): 8.78 ± 3.03 nM | IC50 (NCI-H1781 cells; NCI-H1781, HER-2 (G776V, Cins), MTT, 72 h, mean ± s.d. (n = 3)): 6.17 ± 0.42 nM | Body weight (g) Begin (Calu-3 xenograft; 2.5 mg/kg/day group): 17.72 ± 0.73 g | IR (%) inhibition rate of tumor growth (tumor weight) (Calu-3 xenograft; 2.5 mg/kg/day oral): 77.16^*** % | Body weight (g) End (Calu-3 xenograft; 2.5 mg/kg/day oral): 16.36 ± 0.92 g | Body weight (g) Begin (HCC827 xenograft; HCC827 xenograft, 1 mg/kg/day group): 17.55 ± 0.96 g | IR (%) inhibition rate of tumor growth (tumor weight) (HCC827 xenograft; HCC827 xenograft, 1 mg/kg/day oral, 15 days): 93.25^*** % | Body weight (g) End (HCC827 xenograft; HCC827 xenograft, 1 mg/kg/day oral): 17.21 ± 0.90 g

Source: paper PMC6451005, “PCC0208027, a novel tyrosine kinase inhibitor, inhibits tumor growth of NSCLC by targeting EGFR and HER2 aberrations” (Scientific Reports, 2019)
